The values below come from US11657895B2, “Methods for identifying treatment targets based on multiomics data” (INSTITUTE FOR SYSTEMS BIOLOGY, priority 2016, dated 2023).

The subject of data set [1] is HA, T98G and U251 cell lines. Put plainly: Apoptosis screen across the HA, T98G and U251 cell lines. It is filed as cell-based, human. As to conditions: oncogene inhibitor paired with miRNA mimic(s) targeting the same oncogene; cell lines listed.
In data set [2] the test system is HA, T98G and U251 cell lines. Put plainly: Proliferation screen across the HA, T98G and U251 cell lines. As to conditions: for Signficant Effect on Proliferation (cell lines): oncogene inhibitor paired with miRNA mimic(s) targeting the same oncogene, cell lines listed.
The subject of a further data set is U251. As to the kind of experiment: Proliferation in GBM-derived cell line U251. It is filed as cell-based. To be noted: Homo sapiens, U-251.
The next data set relates to GBM cell lines. As to conditions: 1.85 nM romidepsin, Sawa et al., 2004; cited from earlier work.
For data set [3] the following is noted: Iwamoto et al., 2011; cited from earlier work.

As for `CNC(=O)c1cc(Oc2ccc(NC(=O)Nc3ccc(Cl)c(C(F)(F)F)c3)cc2)ccn1` [Sorafenib, 4-[4-[[4-chloro-3-(trifluoromethyl)phenyl]carbamoylamino]phenoxy]-N-methyl-pyridine-2-carboxamide], the “Significant Effect on Apoptosis (cell lines)” value in data set [1] was “HA, 198G”.

Turning to `O=C(CCCCCCC(=O)Nc1ccccc1)NO` [Vorinostat, N-Hydroxy-N′-phenyloctanediamide], the “Signficant Effect on Proliferation (cell lines)” value in data set [2] was “HA, U251”.

Regarding `C/C=C1\NC(=O)[C@H]2CSSCC/C=C/[C@H](CC(=O)N[C@H](C(C)C)C(=O)N2)OC(=O)[C@H](C(C)C)NC1=O` [romidepsin, (1S,4S,7Z,10S,16E,21R)-7-ethylidene-4,21-diisopropyl-2-oxa-12,13-dithia-5,8,20,23-tetrazabicyclo[8.7.6]tricos-16-ene-3,6,9,19,22-pentone], the IC50 with U251 was 1.1 nM. Also, in the data set with GBM cell lines, the “Effect in GBM cell lines” value is “anti-proliferative and pro-apoptotic”. For the same compound, in data set [2], the “Rank of single-agent effects on proliferation and apoptosis” value was “strongest effects on proliferation and apoptosis in every cell line”; the “Signficant Effect on Proliferation (cell lines)” value is “HA, U251”. In data set [3], the half-life in patients result is on record as “short half-life”.
